Test results as given in patent US10570123B2 (SURFACE LOGIX, LLC, priority 2005, dated 2020).

How the values were obtained:
[1] = biological target: ROCK2 (Homo sapiens (Human), UniProt O75116); test: Inhibition of ROCK2; type: biochemical; conditions: FIG. 10 legend, qualitative
Description: Methods of determining kinase inhibition are well known in the art. For example, kinase activity of an enzyme and the inhibitory capacity of a test compound can be determined by measuring enzyme specific phosphorylation of a substrate. Commercial assays and kits can be employed. For example, kinase inhibition can be determined using an IMAP® assay (Molecular Devices). This assay method involves the use of a fluorescently-tagged peptide substrate. Phosphorylation of the tagged peptide by a kinase of interest promotes binding of the peptide to a trivalent metal-based nanoparticle via the specific, high affinity interaction between the phospho-group and the trivalent metal. Proximity to the nanoparticle results in increased fluorescence polarization. Inhibition of the kinase by a kinase inhibitor prevents phosphorylation of the substrate and thereby limits binding of the fluorescently-tagged substrate to the nanoparticle. […]
ROCK-II inhibitory activity can be measured using the ROCK-II Assay Kit (Molecular Devices, inc.; Sunnyvale, Calif.).
Inhibition of ROCK2 by various compounds was determined.
Inhibitory activity for Rho kinase was determined for examples of compounds of the present invention. […] For each of these compounds their inhibitory activity for both ROCK 1 and ROCK 2 was determined. […]

[2] = system: PKC; test: Inhibition of PKC (FIG. 10 comparison); type: biochemical; conditions: FIG. 10 legend, qualitative

Chain of ROCK2 (O75116 whole entry, species assumed): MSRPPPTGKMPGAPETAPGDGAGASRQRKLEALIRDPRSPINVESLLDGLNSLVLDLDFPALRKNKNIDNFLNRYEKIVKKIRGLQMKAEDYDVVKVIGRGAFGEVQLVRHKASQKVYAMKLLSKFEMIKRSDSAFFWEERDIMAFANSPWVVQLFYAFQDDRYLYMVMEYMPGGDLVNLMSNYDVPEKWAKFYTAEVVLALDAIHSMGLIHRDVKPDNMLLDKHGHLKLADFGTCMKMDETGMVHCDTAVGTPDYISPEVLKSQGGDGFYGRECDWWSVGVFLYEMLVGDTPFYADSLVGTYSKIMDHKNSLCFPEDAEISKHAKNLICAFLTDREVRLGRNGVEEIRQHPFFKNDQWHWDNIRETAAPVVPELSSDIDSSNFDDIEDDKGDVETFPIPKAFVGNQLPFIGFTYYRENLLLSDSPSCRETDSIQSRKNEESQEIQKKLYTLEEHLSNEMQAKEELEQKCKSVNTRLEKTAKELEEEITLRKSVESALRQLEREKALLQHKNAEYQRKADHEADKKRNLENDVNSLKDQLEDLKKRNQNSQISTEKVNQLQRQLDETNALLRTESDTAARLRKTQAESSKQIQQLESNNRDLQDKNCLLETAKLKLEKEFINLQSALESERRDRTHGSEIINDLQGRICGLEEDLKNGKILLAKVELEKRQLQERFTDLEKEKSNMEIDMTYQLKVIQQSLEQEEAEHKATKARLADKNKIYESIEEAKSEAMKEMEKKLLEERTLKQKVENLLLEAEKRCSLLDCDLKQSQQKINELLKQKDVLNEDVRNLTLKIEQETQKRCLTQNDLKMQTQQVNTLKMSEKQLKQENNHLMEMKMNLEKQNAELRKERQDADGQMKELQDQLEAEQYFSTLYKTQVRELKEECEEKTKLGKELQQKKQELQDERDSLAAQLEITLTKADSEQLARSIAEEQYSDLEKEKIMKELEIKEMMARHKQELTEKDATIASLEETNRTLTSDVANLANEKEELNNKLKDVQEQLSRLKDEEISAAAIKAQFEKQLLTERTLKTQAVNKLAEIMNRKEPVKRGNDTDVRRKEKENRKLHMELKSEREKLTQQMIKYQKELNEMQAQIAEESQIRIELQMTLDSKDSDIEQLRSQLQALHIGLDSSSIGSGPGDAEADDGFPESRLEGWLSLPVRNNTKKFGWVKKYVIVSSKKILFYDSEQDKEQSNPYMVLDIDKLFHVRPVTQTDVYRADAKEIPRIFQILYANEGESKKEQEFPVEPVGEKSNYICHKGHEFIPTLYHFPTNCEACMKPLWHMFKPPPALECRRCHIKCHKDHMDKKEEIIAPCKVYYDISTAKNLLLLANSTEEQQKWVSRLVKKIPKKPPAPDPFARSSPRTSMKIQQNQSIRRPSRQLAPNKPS

| Structure (SMILES) | inhibition of ROCK2 (FIG. 10) [1] | inhibition of PKC (FIG. 10) [2] |
| --- | --- | --- |
| CC(C)NC(=O)COc1cccc(-c2nc(Nc3ccc4[nH]ncc4c3)c3ccccc3n2)c1 [Example 82, 2-(3-(4-(1H-indazol-5-ylamino)quinazolin-2-yl)phenoxy)-N-isopropylacetamide] | specific inhibition of ROCK2 |  |
| C[C@@H](N)[C@H]1CC[C@H](C(=O)Nc2ccncc2)CC1 [Example Y27632] | inhibits | inhibits |
